# Key:
# HIV-IIIb = assay: Test A: Antiviral assay in MT4 cells; type: cell-based, HIV-1; settings: MT-4 cells infected with HIV-IIIb, 5 days, CellTiter-Glo; for % inhibition at 2 μM: percent inhibition of virus-induced cell killing, from dose response curve at 2 uM drug; for inhibition at 2 µM: Human immunodeficiency virus 1, IIIB, MT4, 120 h, read-out: % inhibition at 2 μM, percent inhibition of virus-induced cell killing, from dose response curve at 2 uM drug
# in vitro = assay: in vitro
# Experimental: For the antiviral assay, 40 μL of 1× test concentration of 3-fold serially diluted compound in culture medium with 10% FBS was added to each well of a 384-well plate (10 concentrations) in quadruplicate. MT-4 cells were next mixed with HIV-IIIb at an m.o.i of 0.003 for 1 hour, after which time 35 μL of virus/cell mixture (2000 cells) was immediately added to each well containing 40 μL of diluted compound. The plates were then incubated at 37° C. for 5 days. After 5 days of incubation, 25 μl of 2× concentrated CellTiter-Glo™ Reagent (catalog #G7571, Promega Biosciences, Inc., Madison, Wis.) was added to each well containing MT-4 cells. Cell lysis was carried out by incubating at room temperature for 10 min and then chemiluminescence was read.
# Test B: Cytotoxicity Assay
# Compound cytotoxicity and the corresponding CC50 values was determined using the same protocol as described in the antiviral assay (Test A) except that uninfected cells were used.
# [1] = human, uninfected MT-4 cells, CC50 (nM), same protocol as Test A, CellTiter-Glo
SMILES,% inhibition at 2 μM (HIV-IIIb),CC50 at 5 days (in vitro; [1]),inhibition at 2 µM (HIV-IIIb),"CC50 at 5 days (in vitro; human, CC50 (nM), uninfected MT-4 cells, same protocol as Test A, CellTiter-Glo)"
"O=C(N[C@@H](Cc1cc(F)cc(F)c1)c1ncccc1-c1ccc(Cl)cc1)C(c1c[nH]c2ccc(F)cc12)C(F)(F)F (single isomer, unassigned) [Example 36F]",15%,7200 nM,,
"NC(=O)c1cc(-c2cccnc2[C@H](Cc2cc(F)cc(F)c2)NC(=O)Cn2nc(C(F)F)c3c2CC2CC32)ccc1F (single isomer, unassigned) [Example 248]",,26500 nM,88%,
"O=C(Cn1nc(C(F)F)c2c1C1CC1CC2)NC(Cc1cc(F)cc(F)c1)c1ncncc1-c1cnc2[nH]ccc2c1 (single isomer, unassigned) [Example 329]",99%,14700 nM,,
"CC(C)(CC(=O)N[C@@H](Cc1cc(F)cc(F)c1)c1ncccc1-c1ccc(F)c(C(N)=O)c1)n1ccc(C(F)(F)F)n1 (single isomer, unassigned) [Example 478E]",,,0%,21500 nM
"CC(C)C(C(=O)N[C@@H](Cc1cc(F)cc(F)c1)c1ncccc1-c1ccc(F)c(C(N)=O)c1)n1ccc(C(F)(F)F)n1 (single isomer, unassigned) [Example 479]",,26400 nM,2%,
"CCC(C(=O)N[C@@H](Cc1cc(F)cc(F)c1)c1ncccc1-c1ccc(F)c(C(N)=O)c1)n1nc(C(F)F)cc1C(F)F (single isomer, unassigned) [Example 483D]",,26200 nM,19%,
"CCCCC(C(=O)N[C@@H](Cc1cc(F)cc(F)c1)c1ncccc1-c1ccc(F)c(C(N)=O)c1)n1ccc(C(F)(F)F)n1 (single isomer, unassigned) [Example 487C]",,9710 nM,10%,
"CN(C)C(C(=O)N[C@@H](Cc1cc(F)cc(F)c1)c1ncccc1-c1ccc(F)c(C(N)=O)c1)c1ccc(F)cc1 (single isomer, unassigned) [Example 503]",3%,40400 nM,,
"NC(=O)c1cc(-c2cccnc2[C@H](Cc2cc(F)cc(F)c2)NC(=O)C(c2ccccc2)C2CCCC2)ccc1F (single isomer, unassigned) [Example 515]",0%,9460 nM,,
"Cc1cc2ncn(C(CC(F)(F)F)C(=O)N[C@@H](Cc3cc(F)cc(F)c3)c3ncccc3-c3ccc(F)c(C(N)=O)c3)c2cc1C (single isomer, unassigned) [Example 540E]",−4%,> 53200 nM,,
"CCC(C(=O)N[C@@H](Cc1cc(F)cc(F)c1)c1ncccc1-c1ccc(F)c(C(N)=O)c1)n1ccnc1C(C)C (single isomer, unassigned) [Example 558B]",3%,> 53200 nM,,
"CCC(C(=O)N[C@@H](Cc1cc(F)cc(F)c1)c1ncccc1-c1ccc(F)c(C(N)=O)c1)n1cc(C(F)(F)F)cn1 (single isomer, unassigned) [Example 565]",0%,37600 nM,,
"CCC(C(=O)N[C@@H](Cc1cc(F)cc(F)c1)c1ncccc1-c1ccc(F)c(C(N)=O)c1)n1ccc(C(F)(F)F)n1 (single isomer, unassigned) [Example 572B]",,36700 nM,11%,
"CC(C)CC(C(=O)N[C@@H](Cc1cc(F)cc(F)c1)c1ncccc1-c1ccc(F)c(C(N)=O)c1)n1ccc(C(F)(F)F)n1 (single isomer, unassigned) [Example 581D]",,10600 nM,6%,
"O=C(Cc1c[nH]c2ccc(O)nc12)N[C@@H](Cc1cc(F)cc(F)c1)c1nccnc1-c1ccc(Cl)cc1 (stereo in doubt) [Example 476, N-(1-(3-(4-chlorophenyl)pyrazin-2-yl)-2-(3,5-difluorophenyl)ethyl)-2-(5-hydroxy-1H-pyrrolo[3,2-b]pyridin-3-yl)acetamide]",,53200 nM,30%,
"Cc1ccccc1-c1cccnc1C(Cc1ccccc1)NC(=O)Cn1nc(C(F)(F)F)c2c1CCCC2 (centres unmarked) [Example 2, N-(2-phenyl-1-(3-(o-tolyl)pyridin-2-yl)ethyl)-2-(3-(trifluoromethyl)-4,5,6,7-tetrahydro-1H-indazol-1-yl)acetamide]",,14000 nM,29%,
"Cc1ccccc1-c1cccnc1C(Cc1cc(F)cc(F)c1)NC(=O)Cc1c[nH]c2ccc(O)cc12 (centres unmarked) [Example 3, N-(2-(3,5-difluorophenyl)-1-(3-o-tolylpyridin-2-yl)ethyl)-2-(5-hydroxy-1H-indol-3-yl)acetamide]",,21900 nM,40%,
"Cc1ccccc1-c1cccnc1C(Cc1cc(F)cc(F)c1)NC(=O)Cn1nc(C(F)(F)F)c2c1CCCC2 (centres unmarked) [Example 4, N-(2-(3,5-difluorophenyl)-1-(3-o-tolylpyridin-2-yl)ethyl)-2-(3-(trifluoromethyl)-4,5,6,7-tetrahydro-1H-indazol-1-yl)acetamide]",,10300 nM,69%,
"COc1ccc(-c2cccnc2C(Cc2cc(F)cc(F)c2)NC(=O)Cc2c[nH]c3ccc(O)cc23)c(C)c1 (centres unmarked) [Example 5, N-(2-(3,5-difluorophenyl)-1-(3-(4-methoxy-2-methylphenyl)pyridin-2-yl)ethyl)-2-(5-hydroxy-1H-indol-3-yl)acetamide]",,32700 nM,76%,
"COc1ccc(-c2cccnc2C(Cc2cc(F)cc(F)c2)NC(=O)Cn2nc(C(F)(F)F)c3c2CCCC3)c(C)c1 (centres unmarked) [Example 6, N-(2-(3,5-difluorophenyl)-1-(3-(4-methoxy-2-methylphenyl)pyridin-2-yl)ethyl)-2-(3-(trifluoromethyl)-4,5,6,7-tetrahydro-1H-indazol-1-yl)acetamide]",,11400 nM,45%,
"COc1cc(C)c(-c2cccnc2C(Cc2cc(F)cc(F)c2)NC(=O)Cc2c[nH]c3ccc(O)cc23)c(C)c1 (centres unmarked) [Example 7, N-(2-(3,5-difluorophenyl)-1-(3-(4-methoxy-2,6-dimethylphenyl)pyridin-2-yl)ethyl)-2-(5-hydroxy-1H-indol-3-yl)acetamide]",,17600 nM,18%,
"COc1cc(C)c(-c2cccnc2C(Cc2cc(F)cc(F)c2)NC(=O)Cn2nc(C(F)(F)F)c3c2CCCC3)c(C)c1 (centres unmarked) [Example 8, N-(2-(3,5-difluorophenyl)-1-(3-(4-methoxy-2,6-dimethylphenyl)pyridin-2-yl)ethyl)-2-(3-(trifluoromethyl)-4,5,6,7-tetrahydro-1H-indazol-1-yl)acetamide]",,15700 nM,20%,
"Cc1ccccc1-c1ccnc(C(Cc2ccccc2)NC(=O)Cc2c[nH]c3ccc(O)cc23)n1 (centres unmarked) [Example 9E, 2-(5-hydroxy-1H-indol-3-yl)-N-(2-phenyl-1-(4-o-tolylpyrimidin-2-yl)ethyl)acetamide]",,35900 nM,0%,
"Cc1ccccc1-c1ccnc(C(Cc2ccccc2)NC(=O)Cn2nc(C(F)(F)F)c3c2CCCC3)n1 (centres unmarked) [Example 10, N-(2-phenyl-1-(4-o-tolylpyrimidin-2-yl)ethyl)-2-(3-(trifluoromethyl)-4,5,6,7-tetrahydro-1H-indazol-1-yl)acetamide]",,13000 nM,0%,
"Cc1ccccc1-c1ccnc(C(Cc2cc(F)cc(F)c2)NC(=O)Cc2c[nH]c3ccc(O)cc23)n1 (centres unmarked) [Example 11, N-(2-(3,5-difluorophenyl)-1-(4-o-tolylpyrimidin-2-yl)ethyl)-2-(5-hydroxy-1H-indol-3-yl)acetamide]",,35700 nM,0%,
"Cc1ccccc1-c1ccnc(C(Cc2cc(F)cc(F)c2)NC(=O)Cn2nc(C(F)(F)F)c3c2CCCC3)n1 (centres unmarked) [Example 12, N-(2-(3,5-difluorophenyl)-1-(4-o-tolylpyrimidin-2-yl)ethyl)-2-(3-(trifluoromethyl)-4,5,6,7-tetrahydro-1H-indazol-1-yl)acetamide]",,8980 nM,0%,
"COc1ccc(-c2cccnc2[C@H](Cc2cc(F)cc(F)c2)NC(=O)Cc2c[nH]c3ccc(O)cc23)cc1 [Example 13G, (S)—N-(2-(3,5-difluorophenyl)-1-(3-(4-methoxyphenyl)pyridin-2-yl)ethyl)-2-(5-hydroxy-1H-indol-3-yl)acetamide]",,25600 nM,97%,
"Cc1ccccc1-c1cccnc1[C@H](Cc1ccccc1)NC(=O)Cc1c[nH]c2ccc(O)cc12 [Example 14, (S)-2-(5-hydroxy-1H-indol-3-yl)-N-(2-phenyl-1-(3-o-tolylpyridin-2-yl)ethyl)acetamide]",,25400 nM,76%,
"Cc1ccccc1-c1cccnc1[C@@H](Cc1ccccc1)NC(=O)Cc1c[nH]c2ccc(O)cc12 [Example 15, (R)-2-(5-hydroxy-1H-indol-3-yl)-N-(2-phenyl-1-(3-o-tolylpyridin-2-yl)ethyl)acetamide]",,28200 nM,0%,
"NC(=O)c1cc(-c2cccnc2[C@H](Cc2cc(F)cc(F)c2)NC(=O)Cn2nc(C(F)(F)F)c3c2CCCC3)ccc1F [Example 589, (S)-5-(2-(2-(3,5-difluorophenyl)-1-(2-(3-(trifluoromethyl)-4,5,6,7-tetrahydro-1H-indazol-1-yl)acetamido)ethyl)pyridin-3-yl)-2-fluorobenzamide]",,,106%,

# — patent publication US9540343B2 (Gilead Sciences, Inc., priority 2011, dated 2017)
